Patent publication US9994551B2, “Pyridazine derivatives as RORc modulators” (Genentech, Inc., priority 2015, dated 2018)

Biological target: T1, RORc ligand binding domain (Homo sapiens, UniProt P51449)
T1 construct: host or cells: E. coli
T1 sequence (P51449 269-508 limits assumed): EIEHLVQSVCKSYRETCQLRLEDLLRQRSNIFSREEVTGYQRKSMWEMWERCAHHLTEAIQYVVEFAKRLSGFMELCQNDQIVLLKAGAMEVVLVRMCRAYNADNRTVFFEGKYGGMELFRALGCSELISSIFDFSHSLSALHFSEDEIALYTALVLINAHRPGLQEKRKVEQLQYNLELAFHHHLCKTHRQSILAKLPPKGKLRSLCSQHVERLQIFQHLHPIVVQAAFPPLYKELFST
Test: In vitro RORc ligand binding assay (25-[3H]hydroxycholesterol displacement, filter binding)
Protocol: This assay was used to determine a compound's potency in inhibiting activity of RORc by determining, Kiapp, IC50, or percent inhibition values.
On day of the assay, 100 uL of 0.05% CHAPS (in deionized H2O) was added to all wells of the GFB Unifilter plate and allowed soak for 1 h. A wash buffer of 50 mM HEPES (pH 7.4), 150 mM NaCl, and 5 mM MgCl2 was prepared to wash the filter plate. To prepare an assay buffer, BSA was added to the wash buffer to reach 0.01% and DTT was added to reach 1 mM.
The 20× compound stocks were diluted in DMSO with Assay Buffer 4-fold to reach 5× the final test concentration in 25% DMSO (10 uL compound+30 uL Assay Buffer). Solutions were mixed by aspiration several times with a pipette set on 50 uL volume. For the assay, 10 uL of 5× compound stock solutions in 25% DMSO were added to the assay plate in duplicate.
For two point screening, 10 mM stock compound solutions were diluted in DMSO to obtain 200 uM (20× the high test concentration) and then diluted 10-fold further to reach 20 uM (20× the low test concentration). The 20× stocks were diluted 4-fold with Assay Buffer (10 uL compound+30 uL Assay Buffer) to reach 5× the test concentrations (50 uM and 5 uM) and 10 uL were added to two assay plates for the duplicate wells. With each concentration tested on 2 plates, each set of 80 compounds used 4 assay plates (1 uM and 10 uM, with n=2).
For 25-hydroxycholesterol in 25% DMSO/75% Assay Buffer; 10 uL per well was used for NSB samples. Wells for Total Binding and No Receptor sample determination contained 10 uL of 25% DMSO/75% Assay Buffer per well.
Add 20 uL to all wells to reach 6 nM final concentration in the assay.
Stock receptor solution was diluted in assay buffer to obtain 1.5 ug/mL in Assay Buffer. 20 uL was added to all wells. For No Receptor samples, 20 uL Assay Buffer was substituted for receptor solution.
Assay plates were 96-well polypropylene V-bottom plates. 10 uL of 5× compound in 25% DMSO/75% Assay Buffer was added to Test wells. 10 uL of 25% DMSO/75% Assay Buffer was added to Total Binding or No Receptor wells. 10 uL of 5 uM 25-hydroxycholesterol in 25% DMSO/75% Assay Buffer was added to NSB wells. […] 20 uL of 1.5 ug/mL RORc receptor was added to wells (or 40 uL Assay Buffer to No R wells). Following addition to the wells, the plates were incubated 3 h at 25° C.
Using a Packard Filtermate Harvester, the filter plate were washed 4 times following transfer of the incubated samples. Plates were dry-filtered completely (2 h at 50° C. or overnight at room temperature). 50 uL Microscint 0 was added to all wells and read on Topcount protocol Inverted.

Compound | IC50
CC(=O)N1CCN(C)C[C@@H]1[C@@]12CC[C@@H](c3cc(-c4c(F)cccc4F)nnc31)C2(C)C [Compound 182, 1-[2-[5-(2,6-difluorophenyl)-11,11-dimethyl-3,4-diazatricyclo[6.2.1.02,7]undeca-2,4,6-trien-1-yl]-4-methyl-piperazin-1-yl]ethanone] | 9.1 nM
CC1(C)[C@H]2CC[C@]1([C@H]1CCCN(C(=O)NCCO)C1)c1nnc(-c3c(F)cccc3F)cc12 (stereo in doubt) [Compound 152, 3-[5-(2,6-difluorophenyl)-11,11-dimethyl-3,4-diazatricyclo[6.2.1.02,7]undeca-2,4,6-trien-1-yl]-N-(2-hydroxyethyl)piperidine-1-carboxamide] | 7.4 nM
Cc1coc(N2CCO[C@H]([C@@]34CC[C@@H](c5cc(-c6c(F)cccc6F)nnc53)C4(C)C)C2)n1 [Compound 134, 2-[5-(2,6-difluorophenyl)-11,11-dimethyl-3,4-diazatricyclo[6.2.1.02,7]undeca-2,4,6-trien-1-yl]-4-(4-methyloxazol-2-yl)morpholine] | 4 nM
CC1(C)C2CCC1(C1CCCN(C(=O)c3ncco3)C1)c1nnc(-c3c(F)cccc3F)cc12 (centres unmarked) [Compound 159, [3-[5-(2,6-difluorophenyl)-11,11-dimethyl-3,4-diazatricyclo[6.2.1.02,7]undeca-2,4,6-trien-1-yl]-1-piperidyl]-oxazol-2-yl-methanone] | 4.5 nM
CN1CCN(C)[C@H]([C@@]23CC[C@@H](c4cc(-c5c(F)cccc5F)nnc42)C3(C)C)C1 [Compound 180, 5-(2,6-difluorophenyl)-1-(1,4-dimethylpiperazin-2-yl)-11,11-dimethyl-3,4-diazatricyclo[6.2.1.02,7]undeca-2,4,6-triene] | 16 nM
CC1(C)[C@H]2CC[C@]1([C@H]1CCCN(C(=O)c3cocn3)C1)c1nnc(-c3c(F)cccc3F)cc12 [Compound 122, [3-[5-(2,6-difluorophenyl)-11,11-dimethyl-3,4-diazatricyclo[6.2.1.02,7]undeca-2,4,6-trien-1-yl]-1-piperidyl]-oxazol-4-yl-methanone] | 21 nM
CC1(C)[C@H]2CC[C@]1([C@@H]1CN(C(=O)c3c[nH]c(=O)cn3)CCO1)c1nnc(-c3c(F)cccc3F)cc12 [Compound 118, 5-[2-[5-(2,6-difluorophenyl)-11,11-dimethyl-3,4-diazatricyclo[6.2.1.02,7]undeca-2,4,6-trien-1-yl]morpholine-4-carbonyl]-1H-pyrazin-2-one] | 11 nM
CC1(C)[C@H]2CC[C@]1([C@H]1CCCN(c3ccc(Cl)nn3)C1)c1nnc(-c3c(F)cccc3F)cc12 [Compound 170, 1-[1-(6-chloropyridazin-3-yl)-3-piperidyl]-5-(2,6-difluorophenyl)-11,11-dimethyl-3,4-diazatricyclo[6.2.1.02,7]undeca-2,4,6-triene] | 18 nM
CC[C@@H](O[C@@]12CC[C@@H](c3cc(-c4c(F)cccc4F)nnc31)C2(C)C)C(=O)NCC1(O)COC1 [Compound 57, (R)-2-(((5S,8R)-3-(2,6-difluorophenyl)-9,9-dimethyl-5,6,7,8-tetrahydro-5,8-methanocinnolin-8-yl)oxy)-N-((3-hydroxyoxetan-3-yl)methyl)butanamide] | 44.5 nM
CC1(C)[C@H]2CC[C@]1([C@@H]1CN(CC(F)F)CCO1)c1nnc(-c3c(F)cccc3F)cc12 [Compound 83, (R)-4-(2,2-difluoroethyl)-2-((5R,8R)-3-(2,6-difluorophenyl)-9,9-dimethyl-5,6,7,8-tetrahydro-5,8-methanocinnolin-8-yl)morpholine] | 356 nM
CC1(C)[C@H]2CC[C@]1(O[C@H](C(N)=O)C1CC1)c1nnc(-c3c(F)cccc3F)cc12 [Compound 45] | 132 nM
CC1(C)[C@H]2CC[C@]1([C@H]1CCCN(C(=O)NCC3(O)COC3)C1)c1nnc(-c3c(F)cccc3F)cc12 (stereo in doubt) [Compound 153, 3-[5-(2,6-difluorophenyl)-11,11-dimethyl-3,4-diazatricyclo[6.2.1.02,7]undeca-2,4,6-trien-1-yl]-N-[(3-hydroxyoxetan-3-yl)methyl]piperidine-1-carboxamide] | 110 nM
CN1CCN(C(N)=O)[C@@H]([C@@]23CC[C@@H](c4cc(-c5c(F)cccc5F)nnc42)C3(C)C)C1 [Compound 181, 2-[5-(2,6-difluorophenyl)-11,11-dimethyl-3,4-diazatricyclo[6.2.1.02,7]undeca-2,4,6-trien-1-yl]-4-methyl-piperazine-1-carboxamide] | 62 nM
CC1(C)[C@H]2CC[C@]1([C@@H]1CN(S(C)(=O)=O)CCO1)c1nnc(-c3c(F)cccc3F)cc12 [Compound 65, (R)-2-((5R,8R)-3-(2,6-difluorophenyl)-9,9-dimethyl-5,6,7,8-tetrahydro-5,8-methanocinnolin-8-yl)-4-(methylsulfonyl)morpholine] | 224 nM
CC[C@H](CO)O[C@@]12CC[C@@H](c3cc(-c4c(F)cccc4F)nnc31)C2(C)C [Compound 35, (R)-2-(((5S,8R)-3-(2,6-difluorophenyl)-9,9-dimethyl-5,6,7,8-tetrahydro-5,8-methanocinnolin-8-yl)oxy)butan-1-ol] | 19.8 nM
CC1(C)[C@H]2CC[C@]1([C@H]1CN(C(=O)c3ccc(Cl)nn3)CCO1)c1nnc(-c3c(F)cccc3F)cc12 [Compound 124, (6-chloropyridazin-3-yl)-[2-[5-(2,6-difluorophenyl)-11,11-dimethyl-3,4-diazatricyclo[6.2.1.02,7]undeca-2,4,6-trien-1-yl]morpholin-4-yl]methanone] | 140 nM
CC1(C)[C@H]2CC[C@]1([C@H]1CN(C(=O)c3c[nH]c(=O)cn3)CCO1)c1nnc(-c3c(F)cccc3F)cc12 [Compound 119, 5-[2-[5-(2,6-difluorophenyl)-11,11-dimethyl-3,4-diazatricyclo[6.2.1.02,7]undeca-2,4,6-trien-1-yl]morpholine-4-carbonyl]-1H-pyrazin-2-one] | 21 nM
CN(C)C(=O)N1CCC[C@H]([C@@]23CC[C@@H](c4cc(-c5c(F)cccc5F)nnc42)C3(C)C)C1 [Compound 97, (R)-3-((5R,8R)-3-(2,6-difluorophenyl)-9,9-dimethyl-5,6,7,8-tetrahydro-5,8-methanocinnolin-8-yl)-N,N-dimethylpiperidine-1-carboxamide] | 98.5 nM
CC[C@@H](O[C@@]12CC[C@@H](c3cc(-c4c(F)cccc4F)nnc31)C2(C)C)C(=O)NC[C@H](C)O [Compound 51, (R)-2-(((5S,8R)-3-(2,6-difluorophenyl)-9,9-dimethyl-5,6,7,8-tetrahydro-5,8-methanocinnolin-8-yl)oxy)-N-((S)-2-hydroxypropyl)butanamide] | 61.5 nM
COC(=O)N1CCC[C@H]([C@@]23CC[C@@H](c4cc(-c5c(F)cccc5F)nnc42)C3(C)C)C1 [Compound 99, (R)-methyl 3-((5R,8R)-3-(2,6-difluorophenyl)-9,9-dimethyl-5,6,7,8-tetrahydro-5,8-methanocinnolin-8-yl)piperidine-1-carboxylate] | 6.9 nM
Cc1noc(N2CCO[C@H]([C@@]34CC[C@@H](c5cc(-c6c(F)cccc6F)nnc53)C4(C)C)C2)n1 [Compound 84, (R)-2-((5R,8R)-3-(2,6-difluorophenyl)-9,9-dimethyl-5,6,7,8-tetrahydro-5,8-methanocinnolin-8-yl)-4-(3-methyl-1,2,4-oxadiazol-5-yl)morpholine] | 277 nM
CC[C@@H](C[C@@]12CC[C@@H](c3cc(-c4c(F)cccc4F)nnc31)C2(C)C)C(N)=O [Compound 5, (S)-2-(((5R,8R)-3-(2,6-difluorophenyl)-9,9-dimethyl-5,6,7,8-tetrahydro-5,8-methanocinnolin-8-yl)methyl)butanamide] | 67.4 nM
CC[C@@H](O[C@@]12CC[C@@H](c3cc(-c4c(F)cccc4F)nnc31)C2(C)C)C(=O)NCc1nnc(C)o1 [Compound 59, (R)-2-(((5S,8R)-3-(2,6-difluorophenyl)-9,9-dimethyl-5,6,7,8-tetrahydro-5,8-methanocinnolin-8-yl)oxy)-N-((5-methyl-1,3,4-oxadiazol-2-yl)methyl)butanamide] | 45.3 nM
